Data published in patent publication US8168651B2, “Protein kinase modulators” (Cylene Pharmaceuticals, Inc., priority 2008, dated 2012).

Tests used:
Assay in all cases: Standardized radiometric kinase assays, percentage of activity at 0.5 μM;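 further: Read-out is ³³P-labelled substrate protein phosphorylated by each kinase, captured on filters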
[1] = target: each individual kinase of the panel (Homo sapiens, UniProt Q9P1W9); settings: for % Activity: Pim-2(h)
[2] = target: each individual kinase of the panel (Homo sapiens, UniProt O14733); settings: for % Activity: MKK7β(h)
[3] = target: each individual kinase of the panel (Homo sapiens, UniProt P11362); settings: for % Activity: FGFR1(h)
[4] = target: each individual kinase of the panel (Homo sapiens, UniProt P17948); settings: for % Activity: Flt1(h)
[5] = target: each individual kinase of the panel (Homo sapiens, UniProt Q15349); settings: for % Activity: Rsk3(h)
[6] = target: each individual kinase of the panel (Homo sapiens, UniProt Q12866); settings: for % Activity: Mer(h)
[7] = target: each individual kinase of the panel (Homo sapiens, UniProt P00519); settings: for % Activity: Abl(h)
[8] = target: each individual kinase of the panel (Homo sapiens, UniProt Q9UK32); settings: for % Activity: Rsk4(h)
[9] = target: each individual kinase of the panel (Homo sapiens, UniProt P50613); settings: for % Activity: CDK7/cyclinH/MAT1(h)
[10] = target: each individual kinase of the panel (Homo sapiens, UniProt Q9H422); settings: for % Activity: HIPK3(h)
[11] = target: each individual kinase of the panel (Homo sapiens, UniProt P21802); settings: for % Activity: FGFR2(h)
[12] = target: each individual kinase of the panel (Homo sapiens, UniProt Q13464); settings: for % Activity: ROCK-I(h)
[13] = target: each individual kinase of the panel (Homo sapiens, UniProt Q96SB4); settings: for % Activity: SRPK1(h)
[14] = target: each individual kinase of the panel (Homo sapiens, UniProt O15530); settings: for % Activity: PDK1(h)
[15] = target: each individual kinase of the panel (Homo sapiens, UniProt P16234, D842V); settings: for % Activity: PDGFRα(D842V)(h)
[16] = target: each individual kinase of the panel (Homo sapiens, UniProt P35968); settings: for % Activity: KDR(h)
[17] = target: each individual kinase of the panel (Homo sapiens, UniProt O43293); settings: for % Activity: ZIPK(h)
[18] = target: each individual kinase of the panel (Homo sapiens, UniProt P06239); settings: for % Activity: Lck(h)
[19] = target: each individual kinase of the panel (Homo sapiens, UniProt P00533, T790M); settings: for % Activity: EGFR(T790M)(h)
[20] = target: each individual kinase of the panel (Homo sapiens, UniProt P06213); settings: for % Activity: IR(h)
[21] = target: each individual kinase of the panel (Homo sapiens, UniProt P31749); settings: for % Activity: PKBα(h)
[22] = target: each individual kinase of the panel (Homo sapiens, UniProt O60674); settings: for % Activity: JAK2(h)
[23] = target: each individual kinase of the panel (Homo sapiens, UniProt P35916); settings: for % Activity: Flt4(h)
[24] = target: each individual kinase of the panel (Homo sapiens, UniProt Q9BZL6); settings: for % Activity: PKD2(h)
[25] = target: each individual kinase of the panel (Homo sapiens, UniProt O00418); settings: for % Activity: eEF-2K(h)
[26] = target: each individual kinase of the panel (Homo sapiens, UniProt Q04759); settings: for % Activity: PKCθ(h)
[27] = target: each individual kinase of the panel (Homo sapiens, UniProt Q9H2X6); settings: for % Activity: HIPK2(h)
[28] = target: each individual kinase of the panel (Homo sapiens, UniProt P07333)
[29] = target: each individual kinase of the panel (Homo sapiens, UniProt P41240)
Chain of each individual kinase of the panel (Homo sapiens, UniProt P41240) (P41240 2-450 limits assumed): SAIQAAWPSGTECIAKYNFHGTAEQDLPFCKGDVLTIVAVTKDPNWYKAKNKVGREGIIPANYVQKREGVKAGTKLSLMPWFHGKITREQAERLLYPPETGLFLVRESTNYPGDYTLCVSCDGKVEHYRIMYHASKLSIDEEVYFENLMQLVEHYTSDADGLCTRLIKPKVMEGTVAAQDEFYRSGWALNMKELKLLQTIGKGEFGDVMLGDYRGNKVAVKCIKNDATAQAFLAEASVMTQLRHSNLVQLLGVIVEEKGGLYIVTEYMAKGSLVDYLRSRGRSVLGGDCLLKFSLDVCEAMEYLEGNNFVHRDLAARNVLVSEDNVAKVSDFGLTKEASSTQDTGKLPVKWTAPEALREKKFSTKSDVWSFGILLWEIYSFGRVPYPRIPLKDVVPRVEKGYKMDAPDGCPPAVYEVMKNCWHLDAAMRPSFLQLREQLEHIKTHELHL

Chain of each individual kinase of the panel (Homo sapiens, UniProt O14733) (O14733 2-419 limits assumed): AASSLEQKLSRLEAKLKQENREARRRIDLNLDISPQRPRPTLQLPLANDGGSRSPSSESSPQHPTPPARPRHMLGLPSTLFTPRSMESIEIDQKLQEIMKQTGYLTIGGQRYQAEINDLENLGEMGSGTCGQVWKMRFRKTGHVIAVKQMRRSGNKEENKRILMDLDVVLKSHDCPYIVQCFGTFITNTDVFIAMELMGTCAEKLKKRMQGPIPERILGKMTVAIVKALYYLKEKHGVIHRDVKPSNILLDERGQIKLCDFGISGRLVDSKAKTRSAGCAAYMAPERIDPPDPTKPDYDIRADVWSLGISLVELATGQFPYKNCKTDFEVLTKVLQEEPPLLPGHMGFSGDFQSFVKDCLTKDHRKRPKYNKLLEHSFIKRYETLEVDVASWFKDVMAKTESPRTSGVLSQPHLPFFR
Chain of each individual kinase of the panel (Homo sapiens, UniProt P50613) (P50613 2-346 limits assumed): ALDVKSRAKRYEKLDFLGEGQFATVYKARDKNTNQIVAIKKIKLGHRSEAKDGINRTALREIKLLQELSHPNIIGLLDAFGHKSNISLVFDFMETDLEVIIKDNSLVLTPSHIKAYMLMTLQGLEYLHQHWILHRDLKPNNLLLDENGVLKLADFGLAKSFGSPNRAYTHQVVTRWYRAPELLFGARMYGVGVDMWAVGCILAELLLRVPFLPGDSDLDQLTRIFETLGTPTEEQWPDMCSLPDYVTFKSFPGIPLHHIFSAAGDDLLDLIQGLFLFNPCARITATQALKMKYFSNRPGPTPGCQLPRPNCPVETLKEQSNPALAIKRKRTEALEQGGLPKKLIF
Chain of each individual kinase of the panel (Homo sapiens, UniProt P07333) (P07333 20-972 limits assumed): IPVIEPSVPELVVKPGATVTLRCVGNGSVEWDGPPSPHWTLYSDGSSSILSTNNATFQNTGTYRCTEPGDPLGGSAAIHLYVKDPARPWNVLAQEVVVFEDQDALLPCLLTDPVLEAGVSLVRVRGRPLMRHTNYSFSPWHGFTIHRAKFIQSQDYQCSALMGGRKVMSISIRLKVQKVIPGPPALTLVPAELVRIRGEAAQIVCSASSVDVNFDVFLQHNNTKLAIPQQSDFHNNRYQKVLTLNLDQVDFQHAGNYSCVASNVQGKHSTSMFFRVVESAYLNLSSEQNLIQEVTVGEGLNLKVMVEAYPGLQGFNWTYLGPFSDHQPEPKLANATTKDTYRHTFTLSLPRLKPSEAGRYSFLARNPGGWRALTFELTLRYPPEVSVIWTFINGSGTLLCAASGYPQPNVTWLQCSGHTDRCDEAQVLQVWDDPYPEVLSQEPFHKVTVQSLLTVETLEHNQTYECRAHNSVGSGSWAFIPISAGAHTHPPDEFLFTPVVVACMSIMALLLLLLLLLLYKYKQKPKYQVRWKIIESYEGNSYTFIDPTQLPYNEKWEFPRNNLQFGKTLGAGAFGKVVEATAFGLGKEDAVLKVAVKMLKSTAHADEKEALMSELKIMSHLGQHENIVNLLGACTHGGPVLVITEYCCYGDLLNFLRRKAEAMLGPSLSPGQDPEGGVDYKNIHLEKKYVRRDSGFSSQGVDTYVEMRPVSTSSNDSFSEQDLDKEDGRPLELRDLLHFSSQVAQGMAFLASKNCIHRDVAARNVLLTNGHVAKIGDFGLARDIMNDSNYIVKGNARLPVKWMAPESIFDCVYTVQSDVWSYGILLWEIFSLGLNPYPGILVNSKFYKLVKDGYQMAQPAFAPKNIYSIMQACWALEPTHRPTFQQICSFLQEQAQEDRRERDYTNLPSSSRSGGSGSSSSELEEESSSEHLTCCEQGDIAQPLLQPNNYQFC
Chain of each individual kinase of the panel (Homo sapiens, UniProt Q13464) (Q13464 2-1354 limits assumed): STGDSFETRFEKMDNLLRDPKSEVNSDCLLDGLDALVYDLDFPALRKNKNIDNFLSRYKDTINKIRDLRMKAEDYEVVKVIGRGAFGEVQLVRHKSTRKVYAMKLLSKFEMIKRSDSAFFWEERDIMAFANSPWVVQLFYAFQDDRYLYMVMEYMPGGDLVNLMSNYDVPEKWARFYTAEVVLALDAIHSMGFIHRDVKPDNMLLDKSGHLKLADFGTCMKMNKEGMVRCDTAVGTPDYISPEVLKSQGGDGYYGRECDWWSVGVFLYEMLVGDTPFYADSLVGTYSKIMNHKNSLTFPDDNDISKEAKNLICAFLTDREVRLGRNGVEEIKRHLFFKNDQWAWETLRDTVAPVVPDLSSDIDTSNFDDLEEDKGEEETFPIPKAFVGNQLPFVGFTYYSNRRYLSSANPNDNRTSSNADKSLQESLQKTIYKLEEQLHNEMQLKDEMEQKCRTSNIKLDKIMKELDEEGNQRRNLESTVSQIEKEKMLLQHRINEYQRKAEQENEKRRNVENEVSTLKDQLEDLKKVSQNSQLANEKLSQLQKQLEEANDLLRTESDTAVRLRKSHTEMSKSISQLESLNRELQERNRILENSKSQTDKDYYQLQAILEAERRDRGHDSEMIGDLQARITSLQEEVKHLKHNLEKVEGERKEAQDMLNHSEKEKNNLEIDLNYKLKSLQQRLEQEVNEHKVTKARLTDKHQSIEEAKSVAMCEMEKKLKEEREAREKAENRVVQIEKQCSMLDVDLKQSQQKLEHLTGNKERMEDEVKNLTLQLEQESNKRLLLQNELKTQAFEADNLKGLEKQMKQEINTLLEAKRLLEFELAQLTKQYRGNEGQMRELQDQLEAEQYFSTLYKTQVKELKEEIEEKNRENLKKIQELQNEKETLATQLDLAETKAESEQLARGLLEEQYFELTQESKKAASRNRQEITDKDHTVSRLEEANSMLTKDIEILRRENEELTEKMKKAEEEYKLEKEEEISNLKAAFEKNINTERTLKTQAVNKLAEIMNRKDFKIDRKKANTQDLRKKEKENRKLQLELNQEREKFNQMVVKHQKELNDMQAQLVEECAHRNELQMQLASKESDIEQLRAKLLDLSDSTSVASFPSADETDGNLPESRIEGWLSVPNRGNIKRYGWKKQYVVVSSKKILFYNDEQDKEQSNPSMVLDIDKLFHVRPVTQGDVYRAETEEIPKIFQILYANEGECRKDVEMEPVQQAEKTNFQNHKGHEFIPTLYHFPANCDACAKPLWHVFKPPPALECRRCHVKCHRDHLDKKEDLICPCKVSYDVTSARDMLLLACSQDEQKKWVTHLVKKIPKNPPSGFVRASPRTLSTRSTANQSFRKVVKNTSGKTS
Chain of each individual kinase of the panel (Homo sapiens, UniProt P21802) (P21802 22-821 limits assumed): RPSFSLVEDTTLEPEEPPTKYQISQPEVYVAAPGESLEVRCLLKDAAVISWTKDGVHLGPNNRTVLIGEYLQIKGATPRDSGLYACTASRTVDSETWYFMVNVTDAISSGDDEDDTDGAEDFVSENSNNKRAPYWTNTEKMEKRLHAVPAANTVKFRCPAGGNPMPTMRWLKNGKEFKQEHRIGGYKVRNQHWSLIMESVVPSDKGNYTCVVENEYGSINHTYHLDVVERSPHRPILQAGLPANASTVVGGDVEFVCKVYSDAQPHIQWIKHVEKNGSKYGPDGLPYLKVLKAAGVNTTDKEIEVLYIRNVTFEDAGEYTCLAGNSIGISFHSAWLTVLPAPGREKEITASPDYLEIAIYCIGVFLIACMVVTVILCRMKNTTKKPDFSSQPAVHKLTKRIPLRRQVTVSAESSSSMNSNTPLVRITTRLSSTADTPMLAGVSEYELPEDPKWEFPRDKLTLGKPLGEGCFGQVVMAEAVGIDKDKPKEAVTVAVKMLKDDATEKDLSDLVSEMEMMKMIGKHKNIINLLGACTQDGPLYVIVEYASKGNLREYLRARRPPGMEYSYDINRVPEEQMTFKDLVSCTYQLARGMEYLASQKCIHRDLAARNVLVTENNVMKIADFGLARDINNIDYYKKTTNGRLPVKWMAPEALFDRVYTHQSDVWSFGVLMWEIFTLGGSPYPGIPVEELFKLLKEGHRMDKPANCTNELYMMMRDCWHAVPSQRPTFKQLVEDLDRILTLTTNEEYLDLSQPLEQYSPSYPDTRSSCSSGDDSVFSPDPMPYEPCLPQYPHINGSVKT
Chain of each individual kinase of the panel (Homo sapiens, UniProt O00418) (O00418 2-725 limits assumed): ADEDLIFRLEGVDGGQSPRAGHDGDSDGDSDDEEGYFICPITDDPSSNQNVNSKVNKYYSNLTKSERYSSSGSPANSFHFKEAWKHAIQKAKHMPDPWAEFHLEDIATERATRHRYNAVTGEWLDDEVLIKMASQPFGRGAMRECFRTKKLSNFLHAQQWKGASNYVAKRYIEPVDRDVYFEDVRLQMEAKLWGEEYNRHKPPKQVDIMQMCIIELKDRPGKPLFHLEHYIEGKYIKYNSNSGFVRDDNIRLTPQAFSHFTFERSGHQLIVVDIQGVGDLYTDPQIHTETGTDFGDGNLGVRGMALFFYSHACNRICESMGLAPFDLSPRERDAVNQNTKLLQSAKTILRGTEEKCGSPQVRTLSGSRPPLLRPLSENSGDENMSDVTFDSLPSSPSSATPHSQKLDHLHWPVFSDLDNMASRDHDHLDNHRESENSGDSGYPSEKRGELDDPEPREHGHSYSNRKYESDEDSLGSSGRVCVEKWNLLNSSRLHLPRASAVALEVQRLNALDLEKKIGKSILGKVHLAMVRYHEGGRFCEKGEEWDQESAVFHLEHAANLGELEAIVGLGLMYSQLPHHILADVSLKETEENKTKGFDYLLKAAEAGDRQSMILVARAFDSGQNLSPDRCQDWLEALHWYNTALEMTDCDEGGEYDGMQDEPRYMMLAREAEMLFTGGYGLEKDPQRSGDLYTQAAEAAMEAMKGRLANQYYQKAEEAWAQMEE

**Q.** Which results are given for `Clc1ccccc1Nc1nc2c(-c3nnc[nH]3)cccc2c2cnccc12` [A]?
**A.** % Activity [1]: 2%; % Activity [2]: 81%; % Activity [3]: 100%; % Activity [4]: 62%; % Activity [5]: 7%; % Activity [6]: 38%; % Activity [7]: 87%; % Activity [8]: 12%; % Activity [9]: 50%; % Activity [10]: 2%; % Activity [11]: 93%; % Activity [12]: 94%; % Activity [13]: 107%; % Activity [14]: 101%; % Activity [15]: 17%; % Activity [16]: 43%; % Activity [17]: 100%; % Activity [18]: 21%; % Activity [19]: 53%; % Activity [20]: 112%; % Activity [21]: 98%; % Activity [22]: 39%; % Activity [23]: 17%; % Activity [24]: 86%; % Activity [25]: 111%; % Activity [26]: 39%; % Activity [27]: −1%

**Q.** Which results are given for `NC(=O)c1cccc2c1nc(Nc1cccc(Cl)c1)c1ccncc12` [B]?
**A.** % Activity [1]: 46%; % Activity [2]: 75%; % Activity [3]: 93%; % Activity [4]: 66%; % Activity [5]: 40%; % Activity [6]: 39%; % Activity [7]: 92%; % Activity [8]: 41%; % Activity [9]: 17%; % Activity [10]: −1%; % Activity [11]: 94%; % Activity [12]: 97%; % Activity [13]: 91%; % Activity [14]: 88%; % Activity [15]: 15%; % Activity [16]: 75%; % Activity [17]: 19%; % Activity [18]: 24%; % Activity [19]: 76%; % Activity [20]: 95%; % Activity [21]: 90%; % Activity ([28]; Fms(h)): 42%; % Activity [22]: 55%; % Activity [23]: 41%; % Activity [24]: 86%; % Activity [25]: 93%; % Activity [26]: 83%; % Activity [27]: 2%

**Q.** Which “PIM2 percentage of activity” value [1] does the source give for `C#Cc1cccc(Nc2nc3cc(C(=O)O)ccc3c3cncnc23)c1` [drawing 1135] here?
**A.** 25%

**Q.** What about the “MAP2K7 beta percentage of activity” value [2] of the same compound?
**A.** −33%

**Q.** And the “FGFR1 percentage of activity” value [3]?
**A.** −3%

**Q.** And the “FLT1 percentage of activity” value [4]?
**A.** 5%

**Q.** And the “MER percentage of activity” value [6]?
**A.** 54%

**Q.** What about the “ABL1 percentage of activity” value [7] of the same compound?
**A.** 9%

**Q.** What about the “RPS6KA6 percentage of activity” value [8] of the same compound?
**A.** 22%

**Q.** And the “CDK7/cyclinH/MAT1 percentage of activity” value [9]?
**A.** 23%

**Q.** What about the “HIPK3 percentage of activity” value [10] of the same compound?
**A.** 90%

**Q.** And the “FGFR2 percentage of activity” value [11]?
**A.** −7%

**Q.** And the “ROCK-I percentage of activity” value [12]?
**A.** 3%

**Q.** What about the “SRPK1 percentage of activity” value [13] of the same compound?
**A.** 34%

**Q.** What about the “PDK1 percentage of activity” value [14] of the same compound?
**A.** −10%

**Q.** What about the “PDGFRA (D842V) percentage of activity” value [15] of the same compound?
**A.** −9%

**Q.** And the “VEGFR2 percentage of activity” value [16]?
**A.** 33%

**Q.** What about the “DAPK3 percentage of activity” value [17] of the same compound?
**A.** 88%

**Q.** And the “EGFR(T790M) percentage of activity” value [19]?
**A.** 8%

**Q.** And the “INSR percentage of activity” value [20]?
**A.** −5%

**Q.** What about the “AKT1 percentage of activity” value [21] of the same compound?
**A.** −4%

**Q.** And the “CSF1R percentage of activity” value [28]?
**A.** −74%

**Q.** What about the “JAK2 percentage of activity” value [22] of the same compound?
**A.** 1%

**Q.** And the “FLT4 percentage of activity” value [23]?
**A.** 101%

**Q.** What about the “PRKd_nM2 percentage of activity” value [24] of the same compound?
**A.** −7%

**Q.** What about the “CSK percentage of activity” value [29] of the same compound?
**A.** −46%

**Q.** And the “eEF−2K(h) percentage of activity” value [25]?
**A.** −6%

**Q.** What about the “PRKCT percentage of activity” value [26] of the same compound?
**A.** −11%

**Q.** `C#Cc1cccc(Nc2nc3cc(C(=O)O)ccc3c3cnccc23)c1` [drawing 1137] was tested. Which “PIM2 percentage of activity” value [1] did it give?
**A.** 6%

**Q.** And the “MAP2K7 beta percentage of activity” value [2]?
**A.** 7%

**Q.** And the “FGFR1 percentage of activity” value [3]?
**A.** 23%

**Q.** What about the “FLT1 percentage of activity” value [4] of the same compound?
**A.** 75%

**Q.** And the “RPS6KA2 percentage of activity” value [5]?
**A.** 59%

**Q.** What about the “MER percentage of activity” value [6] of the same compound?
**A.** 86%

**Q.** And the “ABL1 percentage of activity” value [7]?
**A.** 20%

**Q.** What about the “RPS6KA6 percentage of activity” value [8] of the same compound?
**A.** 65%

**Q.** And the “CDK7/cyclinH/MAT1 percentage of activity” value [9]?
**A.** 36%

**Q.** What about the “HIPK3 percentage of activity” value [10] of the same compound?
**A.** 91%

**Q.** And the “FGFR2 percentage of activity” value [11]?
**A.** 11%

**Q.** And the “ROCK-I percentage of activity” value [12]?
**A.** 12%

**Q.** What about the “SRPK1 percentage of activity” value [13] of the same compound?
**A.** 63%

**Q.** What about the “PDK1 percentage of activity” value [14] of the same compound?
**A.** 8%

**Q.** And the “PDGFRA (D842V) percentage of activity” value [15]?
**A.** 78%

**Q.** What about the “VEGFR2 percentage of activity” value [16] of the same compound?
**A.** 55%

**Q.** And the “DAPK3 percentage of activity” value [17]?
**A.** 87%

**Q.** What about the “LCK percentage of activity” value [18] of the same compound?
**A.** 33%

**Q.** What about the “EGFR(T790M) percentage of activity” value [19] of the same compound?
**A.** 16%

**Q.** And the “INSR percentage of activity” value [20]?
**A.** −7%

**Q.** What about the “AKT1 percentage of activity” value [21] of the same compound?
**A.** 7%

**Q.** What about the “CSF1R percentage of activity” value [28] of the same compound?
**A.** −12%

**Q.** What about the “JAK2 percentage of activity” value [22] of the same compound?
**A.** 38%

**Q.** What about the “FLT4 percentage of activity” value [23] of the same compound?
**A.** 101%

**Q.** What about the “PRKd_nM2 percentage of activity” value [24] of the same compound?
**A.** 0%

**Q.** What about the “CSK percentage of activity” value [29] of the same compound?
**A.** −9%

**Q.** What about the “eEF−2K(h) percentage of activity” value [25] of the same compound?
**A.** −8%

**Q.** What about the “PRKCT percentage of activity” value [26] of the same compound?
**A.** 10%

**Q.** And the “HIPK2 percentage of activity” value [27]?
**A.** 96%

**Q.** What does the source list for `NC(=O)c1ccc2c(c1)nc(Nc1cccc(Cl)c1)c1ccncc12` [drawing 1138]?
**A.** MAP2K7 beta percentage of activity [2]: 12%; FGFR1 percentage of activity [3]: 17%; FLT1 percentage of activity [4]: 19%; MER percentage of activity [6]: 62%; ABL1 percentage of activity [7]: 14%; CDK7/cyclinH/MAT1 percentage of activity [9]: 57%; HIPK3 percentage of activity [10]: 57%; FGFR2 percentage of activity [11]: 9%; ROCK-I percentage of activity [12]: 11%; SRPK1 percentage of activity [13]: 7%; PDK1 percentage of activity [14]: 7%; PDGFRA (D842V) percentage of activity [15]: 64%; VEGFR2 percentage of activity [16]: 15%; DAPK3 percentage of activity [17]: 34%; LCK percentage of activity [18]: 79%; EGFR(T790M) percentage of activity [19]: 43%; INSR percentage of activity [20]: 0%; AKT1 percentage of activity [21]: 7%; CSF1R percentage of activity [28]: 52%; JAK2 percentage of activity [22]: −4%; FLT4 percentage of activity [23]: 40%; PRKd_nM2 percentage of activity [24]: 25%; CSK percentage of activity [29]: 14%; eEF−2K(h) percentage of activity [25]: −3%; PRKCT percentage of activity [26]: 1%; HIPK2 percentage of activity [27]: 89%
